Measured values published in paper PMC10291704 (Biology of blood and marrow transplantation : journal of …, 2019).
Several values for one entry are separate records, joined by “and”; a condition that tells them apart may be missing. Equal entries are not always repeated. Where two headings read alike, the source gives them in different places.

Tests used:
[1] = between WBC of 0.3 × 10^3 /μL and 259 × 10^3 /μL; cited from earlier work
[2] = 16 patients, 40 mg/m^2/day; cited from earlier work
[3] = cited from earlier work
[4] = type: in vivo, human
[5] = test system: human cell-line model of busulfan-resistant acute myelogenous leukemia; conditions: cited from earlier work; for inhibitory concentration: busulfan-resistant AML cell line

Nc1nc(Cl)nc2c1ncn2[C@@H]1O[C@H](CO)[C@@H](O)[C@@H]1F [clo-fara, clofarabine]
increase of predicted volume of the central compartment with WBC [1]: 2.38 fold | variability observed in clo-fara PK parameters (CL, AUC, volume of distribution) [2]: 2–3 fold | dose excreted in the urine unchanged ([3]; 24-hour urine collections in pediatric studies): 49–60% | hepatic and non-hepatic metabolic conversion [3]: 0.2% | Additive error ([4]; bootstrap mean value): 0.36 ng/mL | Proportional residual unexplained variability ([4]; bootstrap mean value): 32.7% | Volume of the peripheral compartment (Vp) ([4]; bootstrap mean value): 47.3 L/15kg | between-subject variability for volume of central compartment ([4]; final model): 40% | Additive error ([4]; final model parameter estimate): 0.36 ng/mL | Proportional residual unexplained variability ([4]; final model parameter estimate): 33% and 33.2% | Volume of the peripheral compartment (Vp) ([4]; final model parameter estimate): 47 L/15kg and 47.4 L/15kg | AUC ([4]; human, in vivo): 3300 ng·h/mL | Inter-compartmental CL ([4]; human, in vivo): 164 mL/min/kg | Maturation half-time (Thalf) of age effect on CL ([4]; human, in vivo): 0.41 years | Typical value for clo-fara CL ([4]; human, in vivo): 23.4 L/h/15kg | between-subject variability for clo-fara CL ([4]; human, in vivo): 26% | clearance ([4]; human, in vivo): 390 mL/min | intercompartmental CL ([4]; human, in vivo): 9.8 L/h/15kg | AUC at 4 daily doses ([4]; human, in vivo, 10 mg/m2): 1200 ng·h/mL | AUC(0-t) ([4]; human, in vivo, 10 mg/m2, AUC0–24, median (range)): 300 ng·h/mL | AUC at 4 daily doses ([4]; human, in vivo, 30 mg/m2): 3300 ng·h/mL | AUC(0-t) ([4]; human, in vivo, 30 mg/m2, AUC0–24, median (range)): 820 ng·h/mL | AUC0–24, median (range) ([4]; human, in vivo, 40 mg/m2): 1.04 (0.87 – 4.0) mg•hr/L | AUC at 5 daily doses ([4]; human, in vivo, 40 mg/m2): 5200 ng·h/mL | AUC(0-t) ([4]; human, in vivo, 40 mg/m2, AUC0–24, median (range)): 780 ng·h/mL | AUC(0-t) ([4]; human, in vivo, 40 mg/m2, AUC0–24, outlier value of one subject): 4000 ng·h/mL | AUC(0-t) ([4]; human, in vivo, 40 mg/m2, AUC0–24 of the other subjects): ≤ 1170 ng·h/mL | inhibitory concentration [5]: 0.06 µM | difference in cytotoxic activity, clofarabine vs fludarabine ([5]; from inhibitory concentrations): ~50 fold

Nc1nc(F)nc2c1ncn2[C@@H]1O[C@H](CO)[C@@H](O)[C@@H]1O [fludarabine]
inhibitory concentration [5]: 3.0 µM
